Test results taken from article PMC9649518, “Knockout of ABC transporters by CRISPR/Cas9 contributes to reliable and accurate transporter substrate identification for drug discovery” (Frontiers in Pharmacology, 2022).

What was measured:
MRP2 [1] = tested on: MRP2; set-up: method as in Koenig et al., 2010; Swedrowska et al., 2017; details: 50 µM; Caco-2 cells; ref Koenig et al., 2010; Swedrowska et al., 2017; cited from earlier work
MDCKⅡ-MDR1 = tested on: MDCKⅡ-MDR1; set-up: method as in Agarwal et al., 2007; details: MDCKⅡ-MDR1 treated with P-gp inhibitors; ref Agarwal et al., 2007; cited from earlier work
[2] = Bidirectional transport assay across P-gp/BCRP double KO Caco-2 monolayers; details: human, pH 7.4
Description: (§1) The medium was replaced every second day.
(§2) Then, HBSS was aspirated from both sides.
(§3) For MRP2, the nonfluorescent compound CDCFDA was used as the probe substrate. […] After treatment, samples were transferred to black-walled 96-well assay plates. A standard curve of 2-fold serial dilution from 10 µM CDCF was generated. The CDCF concentration was measured based on the fluorescence in a microplate fluorescence reader (Tecan, Switzerland) set at 485 nm and 530 nm for the excitation and emission wavelengths, respectively.

[3] = Bidirectional transport assay across MRP2/BCRP double KO Caco-2 monolayers; details: human
Description: as §2, §3

[4] = Bidirectional transport assay across Caco-2 WT monolayers; details: human, Caco-2, pH 7.4
Description: as §2, §3

[5] = Bidirectional transport assay across BCRP KO Caco-2 monolayers; details: human, pH 7.4
Description: as §2, §3

[6] = Bidirectional transport assay across P-gp/MRP2 double KO Caco-2 monolayers; details: human, pH 7.4
Description: as §1, §2, §3

MRP2 [7] = tested on: MRP2; set-up: method as in Bierman et al., 2010; Holmstock et al., 2018; details: 5 μM and 10 µM; ref Bierman et al., 2010; Holmstock et al., 2018; cited from earlier work
[8] = Bidirectional transport assay across P-gp KO Caco-2 monolayers; details: human, pH 7.4
[9] = Bidirectional transport assay across MRP2 KO Caco-2 monolayers; details: human
Description: as §2, §3

Papp A→B at 1 h, 5 μM [2] | Papp B→A at 1 h, 5 μM [2] | Papp B→A at 1 h, 5 μM ([3]; pH 7.4) | Papp A→B at 1 h, 5 μM ([3]; pH 7.4, Papp A-to-B, Caco^MRP2−/−BCRP−/−, 5 μM substrate, 1 h, 37°C, HBSS pH 7.4, n = 3) | Papp A→B at 1 h, 5 μM [4] | Papp B→A at 1 h, 5 μM [4] | Papp A→B at 1 h, 5 μM [5] | Papp B→A at 1 h, 5 μM [5] | Papp A→B at 1 h, 5 μM [6] | Papp B→A at 1 h, 5 μM [6] | Papp A→B at 1 h, 5 μM [8] | Papp B→A at 1 h, 5 μM [8] | Papp B→A at 1 h, 5 μM ([9]; pH 7.4) | Papp A→B at 1 h, 5 μM ([9]; pH 7.4, Papp A-to-B, Caco^MRP2−/−, 5 μM substrate, 1 h, 37°C, HBSS pH 7.4, n = 3) | SMILES | Effect on darunavir efflux transport (MRP2 [1]) | Increase of Papp (A-B) (MDCKⅡ-MDR1) | Transport activity of MRP2 (MRP2 [7])
– | – | – | – | – | – | – | – | – | – | – | – | – | – | O=C1OC(c2ccc(O)c(S(=O)(=O)O)c2)(c2ccc(O)c(S(=O)(=O)O)c2)c2c(Br)c(Br)c(Br)c(Br)c21 [bromsulphthalein] | significant suppression | – | –
15.2 ± 1.44 ×10⁻⁶ cm/s | 10.3 ± 0.82 ×10⁻⁶ cm/s | 19 ± 3.05 ×10⁻⁶ cm/s | ~1 ×10⁻⁶ cm/s | 3.25 ± 0.59 ×10⁻⁶ cm/s | 24.5 ± 2.04 ×10⁻⁶ cm/s | 5.79 ± 0.64 ×10⁻⁶ cm/s | 18.4 ± 0.98 ×10⁻⁶ cm/s | 13.8 ± 1.01 ×10⁻⁶ cm/s | 11.5 ± 0.96 ×10⁻⁶ cm/s | 10.2 ± 0.27 ×10⁻⁶ cm/s | 6.59 ± 0.62 ×10⁻⁶ cm/s | 20.1 ± 2.26 ×10⁻⁶ cm/s | ~1 ×10⁻⁶ cm/s | Cc1cccc(C)c1OCC(=O)N[C@@H](Cc1ccccc1)[C@@H](O)C[C@H](Cc1ccccc1)NC(=O)[C@H](C(C)C)N1CCCNC1=O [Lopinavir, lopinavir] | – | up to 6 folds | inhibited
